US9034398B2, “Traditional Chinese drug comprising Danshen extracts and Sanqi extracts and use thereof” (TASLY Pharmaceutical Group Co., LTD., priority 2009, dated 2015)

Experiments:
rat myocardial I/R model [1] = assay: Heart blood flow volume by laser Doppler perfusion imaging (LDPI); assay type: in vivo; settings: for inhibitory effect on the decrease of the heart blood flow volume after I/R / heart blood flow volume regained compared to I/R group (LDPI images): 5 mg/kg BW/h intravenous drip; for inhibitory effect on the decrease of the heart blood flow volume after I/R: FIG. 5A; for heart blood flow volume regained compared to I/R group (LDPI images): at 30 min and 60 min after reperfusion, FIG. 4A
Protocol: The rats were anesthetized by intramuscularly injecting 20 wt % urethane (1.25 g/kg) and fixed in the supine position. Neck skin was incised and anterior cervical muscles were separated to expose the trachea. Tracheal intubation was performed. Another end of the intubation was attached to a Small Animal Ventilator (ALC-V8, Shanghai Aoteshai Biology Science and Technology Limited Company, Shanghai, China) so as to carry out pressure breathing under the following conditions: a respiratory ratio of 1:1, a respiratory frequency of 75 times/min and a tidal volume of 12 mL/kg. The rectal temperature, measured with YSI REF 401 (Yellow Spring, Ohio, USA), was maintained at 37 37.5° C. by using a thermal blanket. The chest was sterilized and opened at the intercostal space between 2nd 4th ribs near the left and right sternal border to expose the heart. The 3⁄8 curved needle threaded with 3-0 suture was used to pass through the site at 1 2 mm below the juncture of the pulmonary artery cone and the left atrial appendage. The suture was ligated. A polyethylene tubule was placed between the silk suture and myocardial tissue, the silk suture was […] to cause ischemia. Ligature was released 30 min later to establish an I/R model. Danshensu+I/R group (DLA+I/R group): a Danshensu aqueous solution (in normal saline, 1.25 mg/ml) was administrated at a dosage of 5 mg/kg BW/h by intravenous drip 20 min before the experiment and continued until the end of the entire experiment. Notoginsenoside R1+I/R group (R1+I/R group): a Notoginsenoside R1 aqueous solution (in normal saline, 1.25 mg/ml) was administrated at a dosage of 5 mg/kg BW/h by intravenous drip 20 min before the experiment and continued until the end of the entire experiment. Danshensu:R1(4:1)+I/R group (DR(4:1)+I/R group): an aqueous solution of Danshensu and Notoginsenoside R1 at a weight ratio of 4:1, dissolved in normal saline (1.25 mg/ml, namely, in the solution, the concentration of Danshensu is 1 mg/ml and the concentration of Notoginsenoside R1 is 0.25 mg/ml), was administrated at a dosage of 5 mg/kg BW/h (namely, in the total dosage, the dosage of Danshensu is 4 mg/kg BW/h and the dosage of Notoginsenoside R1 is 1 mg/kg BW/h) by intravenous drip 20 min before the experiment and continued until the end of the entire experiment. Danshensu:R1 (1:1)+I/R group (DR(1:1)+IR group): an aqueous solution of Danshensu and Notoginsenoside R1 at a weight ratio of 1:1, dissolved in normal saline (1.25 mg/ml, namely, in the solution, the concentration of Danshensu is 0.625 mg/ml and the concentration of Notoginsenoside R1 is 0.625 mg/ml), was administrated at a dosage of 5 mg/kg BW/h (namely, in the total dosage, the dosage of Danshensu is 2.5 mg/kg BW/h and the dosage of Notoginsenoside R1 is 2.5 mg/kg BW/h) by intravenous drip 20 min before the experiment and continued until the end of the entire experiment. […] Blood flow volumes on the surface of heart before ischemia, 5 min, 30 min after ischemia, and 5 min, 30 min, 60 min after reperfusion had been recorded by a computer-aided laser Doppler perfusion imager (LDPI) (PeriScan PIM3, […], Sweden). Images were measured and the data were evaluated with […] software. Change rate of blood flow volume of the heart was calculated by taking the blood flow volume before I/R as a baseline.

rat myocardial I/R model [2] = assay: FITC-labeled plasma albumin leakage from the venules of heart coronary vessels; assay type: in vivo; settings: 5 mg/kg BW/h intravenous drip, 60 min after reperfusion; for FITC-labeled albumin leakage from the venules of the coronary vessels (images): FIG. 3A; for inhibitory effect on FITC-labeled albumin leakage (ratio of fluorescence intensity outside to inside the venules): FIG. 3B
Protocol: The rats were anesthetized by intramuscularly injecting 20 wt % urethane (1.25 g/kg) and fixed in the supine position. Neck skin was incised and anterior cervical muscles were separated to expose the trachea. Tracheal intubation was performed. Another end of the intubation was attached to a Small Animal Ventilator (ALC-V8, Shanghai Aoteshai Biology Science and Technology Limited Company, Shanghai, China) so as to carry out pressure breathing under the following conditions: a respiratory ratio of 1:1, a respiratory frequency of 75 times/min and a tidal volume of 12 mL/kg. The rectal temperature, measured with YSI REF 401 (Yellow Spring, Ohio, USA), was maintained at 37 37.5° C. by using a thermal blanket. The chest was sterilized and opened at the intercostal space between 2nd 4th ribs near the left and right sternal border to expose the heart. The 3⁄8 curved needle threaded with 3-0 suture was used to pass through the site at 1 2 mm below the juncture of the pulmonary artery cone and the left atrial appendage. The suture was ligated. A polyethylene tubule was placed between the silk suture and myocardial tissue, the silk suture was […] to cause ischemia. Ligature was released 30 min later to establish an I/R model. Danshensu+I/R group (DLA+I/R group): a Danshensu aqueous solution (in normal saline, 1.25 mg/ml) was administrated at a dosage of 5 mg/kg BW/h by intravenous drip 20 min before the experiment and continued until the end of the entire experiment. Notoginsenoside R1+I/R group (R1+I/R group): a Notoginsenoside R1 aqueous solution (in normal saline, 1.25 mg/ml) was administrated at a dosage of 5 mg/kg BW/h by intravenous drip 20 min before the experiment and continued until the end of the entire experiment. Danshensu:R1(4:1)+I/R group (DR(4:1)+I/R group): an aqueous solution of Danshensu and Notoginsenoside R1 at a weight ratio of 4:1, dissolved in normal saline (1.25 mg/ml, namely, in the solution, the concentration of Danshensu is 1 mg/ml and the concentration of Notoginsenoside R1 is 0.25 mg/ml), was administrated at a dosage of 5 mg/kg BW/h (namely, in the total dosage, the dosage of Danshensu is 4 mg/kg BW/h and the dosage of Notoginsenoside R1 is 1 mg/kg BW/h) by intravenous drip 20 min before the experiment and continued until the end of the entire experiment. […] Under an upright fluorescence microscope (USS-301, Leica, US), fluorescence image of each group was recorded with SIT camera by using a light at 455 nm as an exciting light and a mercury lamp (100 W) as an emission source. FITC fluorescence intensities inside the venules and the adjacent extravascular interstitial substance were measured with Image-Pro Plus 5.0 software, respectively. […]

## O=C(O)C(O)Cc1ccc(O)c(O)c1 (stereo not drawn) [Danshensu, (3,4-dihydroxyphenyl)lactic acid]
Rat myocardial I/R model [1]; at 5 min after reperfusion
  inhibitory effect on the decrease of the heart blood flow volume after I/R: significantly inhibitory effect
Rat myocardial I/R model [1]
  heart blood flow volume regained compared to I/R group (LDPI images): regained to some extent
Rat myocardial I/R model [1]; rats, summary statement of the description
  amelioration of heart perfusion flow caused by I/R (summary): transiently ameliorate
Rat myocardial I/R model [2]
  FITC-labeled albumin leakage from the venules of the coronary vessels (images): can also be observed
  inhibitory effect on FITC-labeled albumin leakage (ratio of fluorescence intensity outside to inside the venules): Significant inhibitory effect on FITC-labeled albumin leakage has not been observed

## CC(C)=CCC[C@](C)(O[C@@H]1O[C@H](CO)[C@@H](O)[C@H](O)[C@H]1O)[C@H]1CC[C@]2(C)[C@@H]1[C@H](O)C[C@@H]1[C@@]3(C)CC[C@H](O)C(C)(C)[C@@H]3[C@@H](O[C@@H]3O[C@H](CO)[C@@H](O)[C@H](O)[C@H]3O[C@@H]3OC[C@@H](O)[C@H](O)[C@H]3O)C[C@]12C [Notoginsenoside R1]
Rat myocardial I/R model [1]
  heart blood flow volume regained compared to I/R group (LDPI images): regained to some extent
Rat myocardial I/R model [1]; no time stated
  inhibitory effect on the decrease of the heart blood flow volume after I/R: has not been observed to have significantly inhibitory effect
Rat myocardial I/R model [2]
  FITC-labeled albumin leakage from the venules of the coronary vessels (images): can also be observed
  inhibitory effect on FITC-labeled albumin leakage (ratio of fluorescence intensity outside to inside the venules): Significant inhibitory effect on FITC-labeled albumin leakage has not been observed
